Results taken from patent US12545658B2, “Pyridine derivatives as calcium-activated chloride channel modulators” (TMEM16A LIMITED, priority 2019, dated 2026).

Biological target: T1, human TMEM16A (TMEM16Aabc variant) (Homo sapiens, UniProt Q5XXA6)
T1 construct: human TMEM16A (TMEM16Aabc variant)
T1 sequence (Q5XXA6 1-986): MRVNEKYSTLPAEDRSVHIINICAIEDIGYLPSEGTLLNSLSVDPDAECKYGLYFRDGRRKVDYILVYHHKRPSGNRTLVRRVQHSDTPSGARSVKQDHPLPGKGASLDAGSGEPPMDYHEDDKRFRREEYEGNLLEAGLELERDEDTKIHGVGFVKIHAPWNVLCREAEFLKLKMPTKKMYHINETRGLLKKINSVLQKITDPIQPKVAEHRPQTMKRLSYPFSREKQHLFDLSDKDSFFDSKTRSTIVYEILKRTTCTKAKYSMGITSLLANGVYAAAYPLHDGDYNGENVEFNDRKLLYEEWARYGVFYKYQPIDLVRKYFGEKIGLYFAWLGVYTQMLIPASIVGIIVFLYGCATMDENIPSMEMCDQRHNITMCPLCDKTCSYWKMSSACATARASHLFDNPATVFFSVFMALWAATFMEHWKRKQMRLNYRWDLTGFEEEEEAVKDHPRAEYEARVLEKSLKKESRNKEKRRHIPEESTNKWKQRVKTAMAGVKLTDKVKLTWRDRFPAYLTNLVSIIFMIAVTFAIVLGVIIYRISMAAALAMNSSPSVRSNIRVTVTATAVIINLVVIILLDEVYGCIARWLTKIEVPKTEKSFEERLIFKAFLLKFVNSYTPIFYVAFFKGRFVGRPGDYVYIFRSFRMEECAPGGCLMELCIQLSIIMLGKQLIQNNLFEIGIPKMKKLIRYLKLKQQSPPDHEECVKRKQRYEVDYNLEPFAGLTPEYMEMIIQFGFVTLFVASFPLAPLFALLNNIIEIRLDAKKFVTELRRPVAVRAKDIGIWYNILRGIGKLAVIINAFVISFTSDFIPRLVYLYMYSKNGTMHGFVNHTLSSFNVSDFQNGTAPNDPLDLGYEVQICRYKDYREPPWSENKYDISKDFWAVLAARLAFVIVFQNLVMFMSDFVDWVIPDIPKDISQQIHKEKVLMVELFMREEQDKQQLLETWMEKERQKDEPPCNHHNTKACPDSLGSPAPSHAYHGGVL
Test: Automated whole-cell patch clamp (QPatch) TMEM16A potentiator assay in FRT cells stably expressing human TMEM16A
Format: cell-based
Details: for QPatch TMEM16A % Potentiation @ 370 nM: 370 nM test compound; for QPatch TMEM16A % Potentiation @ 370 nM / QPatch TMEM16A % Potentation @ 3.3 μM: percentage increase of baseline TMEM16A current; for QPatch TMEM16A % Potentation @ 3.3 μM: 3.3 μM test compound; for EC50: FRT-TMEM16A cells, whole-cell patch clamp, peak current at +70 mV, intracellular calcium at EC20
Protocol: Fisher rat thyroid (FRT) cells stably expressing human TMEM16A (TMEM16Aabc variant; Dr Luis Galietta, Insituto Giannina, Italy) were cultured in T-75 flasks in Hams F-12 media with Coon's modification (Sigma) supplemented with 10% (v/v) foetal bovine serum, penicillin-streptomycin (10,000 U/mL/10000 μg/mL), G-418 (750 μg/mL), L-glutamine (2 mM) and sodium bicarbonate solution (7.5% v/v). At ˜90% confluence cells were harvested for experiments by detachment with a 2:1 (v/v) mixture of Detachin (BMS Biotechnology) and 0.25% (w/v) trypsin-EDTA.
FRT-TMEM16A cells were whole-cell patch clamped using an automated planar patch clamp system (Qpatch, Sophion). Briefly, once high resistance (GOhm) seals were established between the cells and the planar recording array the patch was ruptured using suction pulses to establish the whole-cell recording configuration of the patch clamp technique. The assay employed the following solutions (all reagents Sigma): Intracellular solution (mM): N-methyl-D-glucamine 130, CaCl2 18.2, MgCl2 1, HEPES 10, EGTA 10, BAPTA 20, Mg-ATP 2, pH 7.25, 325 mOsm with sucrose.
Extracellular solution (mM): N-methyl-D-glucamine 130, CaCl2 2, MgCl2 1, HEPES 10, pH 7.3, 320 mOsm with sucrose.
The intracellular solution buffers intracellular calcium at levels required to give ˜20% activation of the maximal TMEM16A mediated current (EC20 for calcium ions). Cells were voltage clamped at a holding potential of −70 mV and a combined voltage step (to +70 mV)/ramp (−90 my to +90 mV) was applied at 0.05 Hz. After a period of current stabilisation test compounds, solubilised in 100% (v/v) DMSO and subsequently diluted into extracellular solution, were applied to generate a cumulative concentration response curve. Each concentration of test compound was incubated for 5 minutes before addition of the next concentration. After the final concentration was tested a supramaximal concentration of either a known active positive modulator or the TMEM16A inhibitor, CaCCinhA01 (Del La Fuente et al, 2008) was added to define the upper and lower limits of the assay.
Compound activity was quantified by measuring the increase in current upon compound addition and expressing this as a percentage increase of baseline TMEM16A current level.
In FIG. 1, IBL equals baseline current, I[#1] equals the peak current during test compound concentration 1 incubation period and so on.
Peak TMEM16A current at +70 mV was plotted as a function of time over the assay period. Baseline current (IBL) was measured after a period of stabilisation. The increase in current for each compound addition was determined by taking the peak current during the incubation period and subtracting the current from the previous recording period and then expressing this as a percentage of the baseline current (% potentiation). For test compound concentration 1 in FIG. 1 this is: (I[#1]−IBL/IBL)×100 For each additional concentration tested the increase in current was determined by subtracting the current from the previous incubation period and normalising the baseline value—for test concentration 2 in FIG. 1 this is: (I[#2]−I[#1])/IBL)×100 The values for each test concentration were plotted as a cumulative function of concentration eg. for test concentration two this would be the sum of the peak changes measured during concentration one plus concentration two.

| QPatch TMEM16A % Potentiation @ 370 nM | QPatch TMEM16A % Potentation @ 3.3 μM | EC50 | Structure (SMILES) |
| --- | --- | --- | --- |
| 172% | 220% | 110 nM | O=C(Cc1cc(Cl)c2cn[nH]c2c1)Nc1ccnc(C(=O)NC2(C(F)(F)F)CC2)c1 [Example 6.3, 4-[[2-(4-Chloro-1H-indazol-6-yl)acetyl]amino]-N-[1-(trifluoromethyl)cyclopropyl]pyridine-2-carboxamide] |
| 55% | 78% | 20 nM | C#CC1(NC(=O)c2cc(NC(=O)Cc3cc(Cl)c4cn[nH]c4c3)ccn2)CCCC1 [Example 6.4, 4-[[2-(4-Chloro-1H-indazol-6-yl)acetyl]amino]-N-(1-ethynylcyclopentyl) pyridine-2-carboxamide] |
| 97% | 267% | 600 nM | O=C(Cc1ccc2c(C(F)(F)F)n[nH]c2c1)Nc1ccnc(C(=O)NC2(C(F)(F)F)CC2)c1 [Example 8.1, N-[1-(Trifluoromethyl)cyclopropyl]-4-[[2-[3-(trifluoromethyl)-1H-indazol-6-yl]acetyl]amino]pyridine-2-carboxamide] |
| 76% | 110% | 150 nM | O=C(Cc1ccc2cn[nH]c2c1)Nc1ccnc(C(=O)NC2(C(F)(F)F)CCC2)c1 [Example 5.1, 4-[[2-(1H-Indazol-6-yl)acetyl]amino]-N-[1-(trifluoromethyl)cyclobutyl]pyridine-2-carboxamide] |
| 112% | 155% | 100 nM | O=C(Cc1ccc2cn[nH]c2c1)Nc1ccnc(C(=O)NC2(C(F)(F)F)CC2)c1 [Example 4.2, 4-[[2-(1H-Indazol-6-yl)acetyl]amino]-N-[1-(trifluoromethyl)cyclopropyl]pyridine-2-carboxamide] |
| 117% | 180% | 220 nM | O=C(Cc1ccc2cn[nH]c2c1)Nc1ccnc(C(=O)NC2(C(F)(F)F)COC2)c1 [Example 11.3, 4-[[2-(1H-Indazol-6-yl)acetyl]amino]-N-[3-(trifluoromethyl)oxetan-3-yl]pyridine-2-carboxamide] |
| 46% | 70% | 310 nM | O=C(Cc1cc2[nH]ncc2cc1F)Nc1ccnc(C(=O)NC2CCCC2(F)F)c1 (stereo not drawn) [Example 6.2, N-(2,2-Difluorocyclopentyl)-4-[[2-(5-fluoro-1H-indazol-6-yl)acetyl]amino]pyridine-2-carboxamide] |
| 102% | 142% | 140 nM | CC(C)(C)NC(=O)c1cc(NC(=O)Cc2cc(Cl)c3cn[nH]c3c2)ccn1 [Example 7.2, N-tert-Butyl-4-[[2-(4-chloro-1H-indazol-6-yl)acetyl]amino]pyridine-2-carboxamide] |
| 47% | 82% | 270 nM | CC(C)(C)NC(=O)c1cc(NC(=O)Cc2cc3[nH]ncc3cc2Cl)ccn1 [Example 7.1, N-tert-Butyl-4-[[2-(5-chloro-1H-indazol-6-yl)acetyl]amino]pyridine-2-carboxamide] |
| 173% | 226% | 50 nM | CC1(NC(=O)c2cc(NC(=O)Cc3ccc4cn[nH]c4c3)ccn2)CC(F)(F)C1 [Example 4.3, N-(3,3-Difluoro-1-methyl-cyclobutyl)-4-[[2-(1H-indazol-6-yl)acetyl]amino]pyridine-2-carboxamide] |
| 41% | 61% | 140 nM | O=C(Cc1ccc2cn[nH]c2c1)Nc1ccnc(C(=O)NC23CC(F)(C2)C3)c1 [Example 11.5, N-(3-Fluoro-1-bicyclo[1.1.1]pentanyl)-4-[[2-(1H-indazol-6-yl)acetyl]amino]pyridine-2-carboxamide] |

More lines, now with the values behind:

| Structure (SMILES) | QPatch TMEM16A % Potentiation @ 370 nM | QPatch TMEM16A % Potentation @ 3.3 μM | EC50 |
| --- | --- | --- | --- |
| CC(C)(C)NC(=O)c1cc(NC(=O)Cc2cc(F)c3cn[nH]c3c2)ccn1 [Example 7, N-tert-Butyl-4-[[2-(4-fluoro-1H-indazol-6-yl)acetyl]amino]pyridine-2-carboxamide] | 88% | 95% | 70 nM |
| CC(C)(NC(=O)c1cc(NC(=O)Cc2ccc3cn[nH]c3c2)ccn1)C(F)F [Example 5, N-(2,2-Difluoro-1,1-dimethyl-ethyl)-4-[[2-(1H-indazol-6-yl)acetyl]amino] pyridine-2-carboxamide] | 80% | 104% | 110 nM |
| CC(C)(C)NC(=O)c1cc(NC(=O)Cc2ccc3cn[nH]c3c2)ccn1 [Example 2, N-tert-Butyl-4-[[2-(1H-indazol-6-yl)acetyl]amino]pyridine-2-carboxamide] | 87% | 131% | 180 nM |
| CC(C)(NC(=O)c1cc(NC(=O)Cc2ccc3cc[nH]c3c2)ccn1)C(F)(F)F [Example 13, 4-[[2-(1H-Indol-6-yl)acetyl]amino]-N-(2,2,2-trifluoro-1,1-dimethyl-ethyl) pyridine-2-carboxamide] | 47% | 93% | 410 nM |
| CC(O)(c1n[nH]c2cc(CC(=O)Nc3ccnc(C(=O)NC4(C(F)(F)F)CC4)c3)ccc12)C(F)(F)F (stereo not drawn) [Example 12, 4-[[2-[3-(2,2,2-Trifluoro-1-hydroxy-1-methyl-ethyl)-1H-indazol-6-yl]acetyl]amino]-N-[1-(trifluoromethyl)cyclopropyl]pyridine-2-carboxamide] | 204% | 338% | 240 nM |
| C#CC(C)(C)NC(=O)c1cc(NC(=O)Cc2ccc3cn[nH]c3c2)ccn1 [Example 3, N-(1,1-Dimethylprop-2-ynyl)-4-[[2-(1H-indazol-6-yl)acetyl]amino]pyridine-2-carboxamide] | 68% | 96% | 20 nM |
| CC(C)(C)NC(=O)c1cc(NC(=O)Cc2cc3[nH]ncc3cc2F)ccn1 [Example 6, N-tert-Butyl-4-[[2-(5-fluoro-1H-indazol-6-yl)acetyl]amino]pyridine-2-carboxamide] | 91% | 164% | 230 nM |
